# Results as given in BindingDB's records for patent US11912686 (Gilead Sciences, 2024).
# Target: Lysophosphatidic acid receptor 1 (Homo sapiens, UniProt Q92633)
# Assay: Calcium Mobilization Assay
# Description: For agonist dose curves, cells were removed from the incubator 2 hours after dye loading and transferred to the FLIPR Tetra instrument (Molecular Devices, San Jose, CA). […] After dye loading, cells were removed from the incubator and 0.3 μL of 200× antagonist was added. Cells were incubated for 60 minutes at 37° C. Antagonist activity was measured on a FLIPR Tetra. Calcium mobilization was monitored for 3.5 minutes and 10 μL 6× EC80 LPA in HBSS, 20 mM HEPES, and 0.1% BSA was added to the cells 5 seconds into the assay. Signal amplitude (Maximum minus minimum) values were plotted against log10 of antagonist concentration using Dose Response T
# Lysophosphatidic acid receptor 1, sequence (Q92633 whole entry): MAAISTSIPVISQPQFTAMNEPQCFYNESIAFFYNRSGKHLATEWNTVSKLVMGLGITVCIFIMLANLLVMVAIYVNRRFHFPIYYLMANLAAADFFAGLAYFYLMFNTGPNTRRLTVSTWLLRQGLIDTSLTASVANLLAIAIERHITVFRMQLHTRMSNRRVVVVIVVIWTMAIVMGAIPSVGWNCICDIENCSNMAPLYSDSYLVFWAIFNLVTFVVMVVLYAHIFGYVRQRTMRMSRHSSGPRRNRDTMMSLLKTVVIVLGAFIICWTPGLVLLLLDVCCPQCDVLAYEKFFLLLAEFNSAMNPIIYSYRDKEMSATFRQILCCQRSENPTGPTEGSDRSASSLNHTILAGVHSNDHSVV
row,SMILES,EC50
1,"CCNC(=O)Nc1ccc(-c2nnn(C)c2NC(=O)O[C@H](C)c2cccnc2Cl)cn1 [US11912686, Compound 4]",≥ 10000 nM
2,"C[C@@H](OC(=O)Nc1c(-c2ccc(NC(=O)N3CCOCC3)cn2)nnn1C)c1cccnc1Cl [US11912686, Compound 189]",989 nM
3,"C[C@@H](OC(=O)Nc1c(-c2ccc(NC(=O)[C@H]3C[C@@](F)(C#N)C3)cn2)nnn1C)c1cccnc1Cl [US11912686, Compound 185]",1700 nM
